# EP0341661A2, “Peptide-drug compositions containing alpha-aminoboronic acid derivatives” (THE DU PONT MERCK PHARMACEUTICAL COMPANY, priority 1988, dated 1989)
# Columns and labels:
# [1] = test system: aminopeptidases; experiment: In situ nasal perfusion: degradation of 100 µM leucine enkephalin in the nasal perfusate; type: in vivo, Sprague-Dawley rats; conditions: 10 µM inhibitor
# [2] = test system: aminopeptidases; experiment: as above; type: in vivo, Sprague-Dawley rats; conditions: for order of inhibition of degradation: 0.1 µM boroleucine, 10 µM bestatin, 100 µM puromycin; for % Leucine Enkephalin Remaining: 0.1 µM inhibitor
# Experimental: In order to evaluate the effectiveness of the α-aminoboronic acid derivative inhibitors of this invention, an animal model was used (according to A. Hussain, J. Furaj, A. Yukihiko and J. E. Truelove, Biochem. Biophys. Res. Com. 133, 923, 1985) to assess the degradation of proteins and peptides in situ and in vivo in situ in the nasal cavity of rats. The method involved the use of Sprague-Dawley rats weighing approximately 300 grams. Each rat was anesthetized with sodium pentobarbitol (50 mg/kg). An incision was made in the neck and the trachea was canulated with PE 240 tubing. For the in situ studies, a second tube, which served to introduce the perfusing solution, was inserted through the esophagus to the posterior part of the nasal cavity. The nasopalatine was closed with an adhesive to prevent drainage of the perfusing solution from the nasal to the oral cavity. For the in vivo in situ studies, the esophagus was canulated using PE 240 tubing closed at one end. The closed end was pushed to the posterior end of the nasal passage and then tied in place. The nasopalatine was closed with an adhesive to prevent drainage of the perfusing solution from the nasal to the oral cavity. The rats were dosed in one nostril with 50 µl of peptide solution in two forms; the control solution had no inhibitor added, the test solution had inhibitor added at concentrations specified in the examples shown below. The dosing solution was 0.1 M phosphate buffer (pH 7.4). At certain time intervals (one rat/time interval), the drug was washed from the nose via the other nostril with 10 ml of 0.1 M phosphate buffer (pH 3.8) using a peristaltic pump. The nasal washing was then placed in a 10 ml volumetric flask and adjusted to 10 ml with the same buffer and analyzed for the peptide by HPLC. The analysis of leucine enkephalin and its major metabolite involved taking aliquots of samples, diluting them with 200 µl of 0.1 M citric acid (pH 2.3) to quench hydrolysis and subjecting the samples to analysis (for in vivo in situ studies, the washings were injected as they were obtained). High Pressure Liquid Chromatography (HPLC) was run on a 4.6 x 250 mm C₈ column. The mobile phase consisted of 0.1 M NaH₂PO₄-H₃PO₄-acetonitrile (916 : 5 : 275) and was delivered at a flow rate of 1.7 ml/min. Detection was by UV at 210 nm. Retention times for leucine enkephalin and its major degradation product, Des-Tyr-leucine enkephalin were 7.3 and 4.8 min., respectively. Data were calculated as % of leucine enkephalin remaining in the nasal perfusate as a function of time, counting the concentration at zero time as 100%. In this example, a 10 ml solution of 0.1 M phosphate buffer solution (pH 7.4) containing 100 µM leucine enkephalin (the peptide) in the absence or presence of 0.1 µM 3-methyl-1(4,4,5,5-tetramethyl-1,3,2-dioxaborolane-2-yl)-1-butamine, trifluoroacetic acid salt (boroleucine) as the inhibitor was perfused nasally in rats as described above. A 10 ml portion of the peptide solution was placed in a water-jacketed container, maintained at 37°C and circulated through the nasal cavity of rats using a peristaltic pump. The perfusing solution was passed through the nasal cavity, out the nostrils, through a funnel, and returned to the water-jacketed container. The perfusate was analyzed by the ANALYTICAL METHOD described above.
# [3] = in vivo, cited from earlier work
compound,measurement,setting,value
"CC(C)C[C@H](NC(=O)[C@@H](O)[C@H](N)Cc1ccccc1)C(=O)O [Bestatin, bestatin, reference compound]",% of leucine enkephalin remaining in the nasal perfusate,[1]; 5 min,97.3±1.6%
same,% of leucine enkephalin remaining in the nasal perfusate,[1]; 20 min,90.0±3.3%
same,% of leucine enkephalin remaining in the nasal perfusate,[1]; 60 min,72.3±6.7%
same,order of inhibition of degradation,[2],boroleucine> bestatin> puromycin
same,% of leucine enkephalin remaining in the nasal perfusate,"[2]; 10 µM inhibitor, 0 min",100.0±0.0%
same,% of leucine enkephalin remaining in the nasal perfusate,"[2]; 10 µM inhibitor, 10 min",94.7±1.7%
same,% of leucine enkephalin remaining in the nasal perfusate,"[2]; 10 µM inhibitor, 30 min",86.6±3.8%
same,% of leucine enkephalin remaining in the nasal perfusate,"[2]; 10 µM inhibitor, 45 min",79.0±5.3%
same,% of leucine enkephalin remaining in the nasal perfusate,"[2]; 10 µM inhibitor, 90 min",57.3±8.8%
"COc1ccc(C[C@H](N)C(=O)N[C@H]2[C@@H](O)[C@H](n3cnc4c(N(C)C)ncnc43)O[C@@H]2CO)cc1 [Puromycin, puromycin, reference compound]",order of inhibition of degradation,[2],boroleucine> bestatin> puromycin
same,% of leucine enkephalin remaining in the nasal perfusate,"[2]; 100 µM inhibitor, 0 min",100.0±0.0%
same,% of leucine enkephalin remaining in the nasal perfusate,"[2]; 100 µM inhibitor, 5 min",96.7±2.4%
same,% of leucine enkephalin remaining in the nasal perfusate,"[2]; 100 µM inhibitor, 10 min",91.3±3.4%
same,% of leucine enkephalin remaining in the nasal perfusate,"[2]; 100 µM inhibitor, 20 min",82.4±4.1%
same,% of leucine enkephalin remaining in the nasal perfusate,"[2]; 100 µM inhibitor, 30 min",78.5±3.2%
same,% of leucine enkephalin remaining in the nasal perfusate,"[2]; 100 µM inhibitor, 45 min",73.6±2.2%
same,% of leucine enkephalin remaining in the nasal perfusate,"[2]; 100 µM inhibitor, 60 min",63.5±5.6%
same,% of leucine enkephalin remaining in the nasal perfusate,"[2]; 100 µM inhibitor, 90 min",48.9±6.7%
"CC(N)B1OC(C)(C)C(C)(C)O1.O=C(O)C(F)(F)F (stereo not drawn) [boroalanine, α,4,4,5,5-pentamethyl-1,3,2-dioxaborolane-2-methanamine, trifluoroacetic acid salt]",% Leucine Enkephalin Remaining,[2]; 0 min,100.0± 0.0%
same,% Leucine Enkephalin Remaining,[2]; 5 min,94.7± 3.0%
same,% Leucine Enkephalin Remaining,[2]; 10 min,91.9± 2.1%
same,% Leucine Enkephalin Remaining,[2]; 20 min,88.5± 2.2%
same,% Leucine Enkephalin Remaining,[2]; 30 min,84.1± 3.1%
same,% Leucine Enkephalin Remaining,[2]; 45 min,77.5± 4.4%
same,% Leucine Enkephalin Remaining,[2]; 60 min,69.9± 6.7%
same,% Leucine Enkephalin Remaining,[2]; 90 min,56.4±12.1%
"CC(C)C(N)B1OC(C)(C)C(C)(C)O1.O=C(O)C(F)(F)F (stereo not drawn) [borovaline, 4,4,5,5-tetramethyl-α-(1-methylethyl)-1,3,2-dioxaborolane-2-methanamine, trifluoroacetic acid salt]",% Leucine Enkephalin Remaining,[2]; 0 min,100.0±0.0%
same,% Leucine Enkephalin Remaining,[2]; 5 min,96.3±1.9%
same,% Leucine Enkephalin Remaining,[2]; 10 min,95.7±1.5%
same,% Leucine Enkephalin Remaining,[2]; 20 min,94.8±1.4%
same,% Leucine Enkephalin Remaining,[2]; 30 min,91.6±1.6%
same,% Leucine Enkephalin Remaining,[2]; 45 min,89.1±2.5%
same,% Leucine Enkephalin Remaining,[2]; 60 min,86.2±2.5%
same,% Leucine Enkephalin Remaining,[2]; 90 min,78.3±4.3%
same,comparison of the inhibitory effect of equimolar concentrations,[2]; 0.1 µM of each inhibitor,superior to boroalanine
leuprolide,improvement of bioavailability over the oral route (factor),[3]; po,112 times
same,drug absorbed systemically,[3]; sc,over 65%
